Laboratory results from patent publication US12083105B2, “Compositions and methods for treating adult-onset neuronal ceroid lipofuscinosis (Kufs disease)” (CORNELL UNIVERSITY, priority 2020, dated 2024).

Key:
SNAP-25 = SNAP-25 levels in total lysate of CSPα−/− primary cortical neurons (quantitative immunoblotting, β-actin normalization); assay type: cell-based, mice; conditions: 200 μM, 72 h, FIG. 3D; for augmentation of SNAP-25 levels: neurons expressing CSPα^L115R and CSPα^L116Δ; for SNAP-25 levels: neurons expressing CSPα^WT or SSPα
Text: For the experiments shown in FIGS. 3A-3E, primary cortical neurons from neonatal CSPα^−/− mice were infected with lentiviruses expressing Myc-tagged CSPα^WT, CSPα^L115R, CSPα^L116Δ, SSPα, or empty lentivirus (Control) on 7 days in vitro (DIV) and examined on 17 DIV. […] The lentivirus infected cells were stained using antibodies against Myc (green), somatodendritic marker MAP2 (red), and counterstained with nuclear stain DAPI (blue). […] Immunoprecipitation (IP) for SNAP-25 was followed by quantitative immunoblotting of the co-immunoprecipitated (co-IP'd) CSPα (top blot), and normalized to the IP'd SNAP-25 (bottom blot). IP: Control=sham IP without IgG. Palm=palmitoylated. […] The mutant CSPα signal was normalized to the amount of immunoprecipitated wilt type CSPα. N.D.=not detected. Representative data from of n=4 shown. […] Immunoprecipitation using anti-synaptobrevin-2 (Syb-2) antibody was followed by quantitative immunoblotting of co-IP'd SNARE-complex partners syntaxin-1 (Synt-1) and SNAP-25. IP: Control=sham IP with plain rabbit serum. […] The Synt-1 signal was normalized to the amount of each normalized to the IP'd Syb-2. Representative data from of n=4 shown. […] The SNAP-25 signal was normalized to the amount of each normalized to the IP'd Syb-2. For the experiments shown in FIGS. 3D-3E, CSPα^−/− primary cortical neurons were lentivirally infected to express Myc-tagged CSPα^WT, CSPα^L115R, CSPα^L116Δ, SSPα, or empty lentivirus (Control) on 5 DIV, and were treated on 12 DIV with vehicle (-=0.1% DMSO), or iron chelators deferiprone (L1=200 μM) and deferoxamine (Dfx=200 μM) for 72 h. […] Cell extracts were separated by SDS-PAGE, and subjected to quantitative immunoblotting using anti-SNAP-25 antibody and β-actin for normalization. To measure palmitoylation, oligomers were disrupted by lysing neurons in 0.1 N HCl plus 0.1% Triton X-100 for 20 min at 4° C., followed by SDS-PAGE and quantitative immunoblotting against CSPα. Representative immunoblots are shown. […] FIG. 3D (right panel) show quantitation of oligomers, palmitoylated CSPα, respectively, in corresponding lane and expressed as a percentage of total. […] Cell extracts were immunoprecipitated using a negative control or anti-Syb-2 antibody, followed by quantitative immunoblotting of the co-IP'd t-SNAREs SNAP-25 and Synt-1. […] In FIGS. 3B-3E data represent means±SEM. *P<0.05; **P<0.01; ***P<0.001; ****P<0.0001 by two-tailed Student's t-test. #P<0.05 by Mann-Whitney-Wilcoxon U test. n.s.=not significant; n.d.=not detected. […]
For SDS-PAGE, 10-15% Laemmli gels (10.3% T and 3.3% C) were used to separate proteins on Bio-Rad apparati. […] Immunoblots were washed 5× with TBS-T and dried, then scanned on Odyssey CLx (LI-COR) and quantified using Image-Studio software (LI-COR). […]

synaptic SNARE-complex = assay: SNARE-complex assembly in primary neurons (Syb-2 immunoprecipitation, co-IP of Synt-1 and SNAP-25); assay type: cell-based, mice; conditions: CSPα^L115R and CSPα^L116Δ expressing neurons; 200 μM, 72 h; compared to vehicle only; FIG. 3E
Text: For the experiments shown in FIGS. 3A-3E, primary cortical neurons from neonatal CSPα^−/− mice were infected with lentiviruses expressing Myc-tagged CSPα^WT, CSPα^L115R, CSPα^L116Δ, SSPα, or empty lentivirus (Control) on 7 days in vitro (DIV) and examined on 17 DIV. […] The lentivirus infected cells were stained using antibodies against Myc (green), somatodendritic marker MAP2 (red), and counterstained with nuclear stain DAPI (blue). […] Immunoprecipitation (IP) for SNAP-25 was followed by quantitative immunoblotting of the co-immunoprecipitated (co-IP'd) CSPα (top blot), and normalized to the IP'd SNAP-25 (bottom blot). IP: Control=sham IP without IgG. Palm=palmitoylated. […] N.D.=not detected. […] Immunoprecipitation using anti-synaptobrevin-2 (Syb-2) antibody was followed by quantitative immunoblotting of co-IP'd SNARE-complex partners syntaxin-1 (Synt-1) and SNAP-25. […] Cell extracts were separated by SDS-PAGE, and subjected to quantitative immunoblotting using anti-SNAP-25 antibody and β-actin for normalization. To measure palmitoylation, oligomers were disrupted by lysing neurons in 0.1 N HCl plus 0.1% Triton X-100 for 20 min at 4° C., followed by SDS-PAGE and quantitative immunoblotting against CSPα. […] FIG. 3D (right panel) show quantitation of oligomers, palmitoylated CSPα, respectively, in corresponding lane and expressed as a percentage of total. […]

| Structure (SMILES) | augmentation of SNAP-25 levels (SNAP-25) | SNAP-25 levels (SNAP-25) | level of co-immunoprecipitated Synt-1 and SNAP-25 (SNARE-complex assembly) (synaptic SNARE-complex) |
| --- | --- | --- | --- |
| Cc1c(O)c(=O)ccn1C [L1, 3-hydroxy-1,2-dimethyl-4(1H)-pyridone] | approximately two-fold | neither L1 nor Dfx affected SNAP-25 levels | increased level |
| CC(=O)N(O)CCCCCNC(=O)CCC(=O)N(O)CCCCCNC(=O)CCC(=O)N(O)CCCCCN [Dfx, N′-[5-(Acetyl-hydroxy-amino)pentyl]-N-[5-[3-(5-aminopentyl-hydroxy-carbamoyl)propanoylamino]pentyl]-N-hydroxy-butane diamide] | approximately two-fold | neither L1 nor Dfx affected SNAP-25 levels | increased level |
